This series relates to GENE-TOX genotoxicity assays, various organisms and cells. Put plainly: GENE-TOX mutagenicity studies. Particulars: for call: Assay Type: In vivo carcinogenicity studies.
Setting [1] is: Species/Cell Type: Chinese hamster ovary (CHO) cells, Assay Type: Forward gene mutation at the HPRT locus, Assay Code: CHO+, Evaluation Type: Evaluation B (Post-1980).
The mark [2] stands for this setting: Species/Cell Type: Drosophila melanogaster, Assay Type: Sex-linked recessive lethal gene mutation, Assay Code: SRLT, Evaluation Type: Evaluation A (Pre-1980).
[3] abbreviates: Species/Cell Type: Fischer rat embryo (RLV/1706) cells, Assay Type: Cell transformation, viral enhanced, Assay Code: CTR+, Evaluation Type: Evaluation A (Pre-1980).
The mark [4] stands for this setting: Species/Cell Type: Human, Assay Type: Sister-chromatid exchange (SCE) in vitro, Assay Code: SC1+, Evaluation Type: Evaluation B (Post-1980).
Where [5] appears, read: Species/Cell Type: Nonhuman, Assay Code: CCG+, Evaluation Type: Evaluation A (Pre-1980).
Where [6] appears, read: Species/Cell Type: Salmonella typhimurium (one or more of the five standard strains: TA98, TA100, TA1535, TA1537, and TA1538), Assay Type: Histidine reverse gene mutation, Ames assay, Assay Code: SAL+, Evaluation Type: Evaluation A (Pre-1980).
[7] abbreviates: Species/Cell Type: Drosophila melanogaster, Assay Type: Sex-linked recessive lethal gene mutation, Assay Code: SRL+, Evaluation Type: Evaluation A (Pre-1980).
[8] abbreviates: Species/Cell Type: Human lymphocytes, Assay Type: Sister-chromatid exchange (SCE) in vitro, Assay Code: SCLT, Evaluation Type: Evaluation B (Post-1980).
Where [9] appears, read: Species/Cell Type: Salmonella typhimurium (one or more of the five standard strains: TA98, TA100, TA1535, TA1537, and TA1538), Assay Type: Histidine reverse gene mutation, Ames assay, Assay Code: SALT, Evaluation Type: Evaluation A (Pre-1980).
The mark [10] stands for this setting: Species/Cell Type: Salmonella typhimurium (one or more of the five standard strains: TA98, TA100, TA1535, TA1537, and TA1538), Assay Type: Histidine reverse gene mutation, Ames assay, Assay Code: SAL+*, Activation: With metabolic activation, Evaluation Type: Evaluation A (Pre-1980).
Where [11] appears, read: Species/Cell Type: Saccharomyces cerevisiae, Assay Type: Mitotic recombination or gene conversion, Assay Code: YEH-, Evaluation Type: Evaluation A (Pre-1980).
[12] abbreviates: Species/Cell Type: Nonhuman, Assay Type: Sister-chromatid exchange (SCE) in vitro, Assay Code: SC2+D, Dose Response: With dose response, Evaluation Type: Evaluation B (Post-1980).

The source made the active and inactive calls. No rule for the calls is given here.

Regarding `CC(=O)N(O)c1ccc2c(c1)Cc1ccccc1-2`, the mutagenic call is “active; positive” (Species/Cell Type: Chinese hamster lung (V79) cells, Assay Type: Forward gene mutation at the HPRT or ouabain locus, Assay Code: V79+, Evaluation Type: Evaluation A (Pre-1980)); “active; positive” under setting [1]; “no conclusion” under setting [2]; “active; positive” (Species/Cell Type: Escherichia coli polA (W3119 vs P3478), Assay Type: Rec-assay, DNA effects (bacterial DNA repair), Assay Code: RE1+, Evaluation Type: Evaluation A (Pre-1980)); “active; positive” under setting [3]; “active; positive” (Species/Cell Type: Human diploid fibroblasts, Assay Type: Unscheduled DNA synthesis (UDS) in vitro, DNA effects, Assay Code: UDH+D, Dose Response: With dose response, Evaluation Type: Evaluation A (Pre-1980)). Moreover, the mutagenic call runs as follows: (Species/Cell Type: Human lymphocytes, Assay Type: Sister-chromatid exchange (SCE) in vitro, Assay Code: SCLT, Evaluation Type: Evaluation A (Pre-1980)) “no conclusion”; under setting [4], “active; positive”; (Species/Cell Type: Human, Assay Type: Sister-chromatid exchange (SCE) in vitro, Assay Code: SC1T, Evaluation Type: Evaluation A (Pre-1980)) “no conclusion”; (Species/Cell Type: Mouse (BALB/c-3T3) cells, Assay Type: Cell transformation, Assay Code: CTB+D, Dose Response: With dose response, Evaluation Type: Evaluation A (Pre-1980)) “active; positive”; (Species/Cell Type: Mouse embryo (AKR/ME) cells, Assay Type: Cell transformation, Assay Code: CTK-, Evaluation Type: Evaluation A (Pre-1980)) “inactive; negative”; (Species/Cell Type: Neurospora crassa, Assay Type: Reverse gene mutation, Assay Code: NER+, Evaluation Type: Evaluation A (Pre-1980)) “active; positive”. For the same compound, the mutagenic call runs as follows: (Species/Cell Type: Nonhuman, Assay Type: Sister-chromatid exchange (SCE) in vitro, Assay Code: SC2+D, Dose Response: With dose response, Evaluation Type: Evaluation A (Pre-1980)) “active; positive”; (Species/Cell Type: Rat primary hepatocytes, Assay Type: Unscheduled DNA synthesis (UDS) in vitro, DNA effects, Assay Code: UDP+, Evaluation Type: Evaluation A (Pre-1980)) “active; positive”; (Species/Cell Type: Saccharomyces cerevisiae, Assay Type: Mitotic recombination or gene conversion, Assay Code: YEC+, Evaluation Type: Evaluation A (Pre-1980)) “active; positive”; under setting [6], “active; positive”; (Species/Cell Type: Syrian hamster embryo (SHE) cells, Assay Type: Cell transformation, clonal assay, Assay Code: CTC+D, Dose Response: With dose response, Evaluation Type: Evaluation A (Pre-1980)) “active; positive”. For the same compound, the call under setting [5] was “active; positive”.

In the case of `CS(=O)(=O)OCC#CCOS(C)(=O)=O`, the mutagenic call under setting [7] was “active; positive”.

Consider `Cc1ccccc1O`, for which the mutagenic call runs as follows: (Species/Cell Type: Allium cepa, Assay Type: Chromosome aberrations, Assay Code: ALCT, Evaluation Type: Evaluation A (Pre-1980)) “no conclusion”; under setting [8], “no conclusion”; under setting [4], “active; positive”; (Species/Cell Type: Nonhuman, Assay Type: Sister-chromatid exchange (SCE) in vivo, Assay Code: SC3T, Evaluation Type: Evaluation B (Post-1980)) “no conclusion”.

For the compound `COc1ccc(N2CCN(c3ccc([N+](=O)[O-])c4no[n+]([O-])c34)CC2)cc1`, under setting [6], the mutagenic call is “active; positive”.

For `COc1cc2c[n+](C)c3c4cc5c(cc4ccc3c2cc1OC)OCO5`, the mutagenic call under setting [9] is “no conclusion”.

Take `Nc1c(F)cc(-c2cc(F)c(N)c(F)c2)cc1F`: the mutagenic call by setting is: (Species/Cell Type: Human diploid fibroblasts, Assay Type: Unscheduled DNA synthesis (UDS) in vitro, DNA effects, Assay Code: UDH+*, Activation: With metabolic activation, Evaluation Type: Evaluation A (Pre-1980)) “active; positive”; under setting [10], “active; positive”.

As for `O=[N+]([O-])c1ccc(C=NCCO)o1`, under setting [6], the mutagenic call is “active; positive”.

`O=NN1CCC(=O)CC1`: the mutagenic call reads like this: under setting [2], “no conclusion”; under setting [10], “active; positive”.

For `CN(C)N=Nc1ccc(O)cc1`, the mutagenic call was “no conclusion” under setting [2] and “inactive; positive without activation, negative with activation” (Species/Cell Type: Saccharomyces cerevisiae, Assay Type: Mitotic recombination or gene conversion, Assay Code: YEC+/-*, Activation: With metabolic activation, Evaluation Type: Evaluation A (Pre-1980)).

With `c1ccc2c(c1)cnc1ccccc12`, the mutagenic call under setting [10] is “active; positive”.

As to `COc1cc2c3c(cc(C)c2c2ccccc12)C(=O)CC3`, the mutagenic call under setting [10] is “active; positive”.

As to `O[C@@H]1[C@H](O)[C@@H](O)c2cc3ccc4cccc5ccc(c2[C@@H]1O)c3c45`, the mutagenic call (Species/Cell Type: Chinese hamster lung (V79) cells, Assay Type: Forward gene mutation at the HPRT or ouabain locus, Assay Code: V79-*, Activation: With metabolic activation, Evaluation Type: Evaluation A (Pre-1980)) was “inactive; negative”.

For the compound `Cc1ccc(O)c(C)c1`, the mutagenic call under setting [8] is on record as “no conclusion”.

In the case of `NC[C@@H]1CC[C@@H](N)[C@@H](O[C@H]2[C@H](O)[C@@H](O[C@H]3O[C@H](CO)[C@@H](O)[C@H](N)[C@H]3O)[C@H](N)C[C@@H]2N)O1`, the mutagenic call under setting [11] was “inactive; negative”.

With `C/C(=N\O)c1ccc([N+](=O)[O-])s1`, the mutagenic call under setting [9] is on record as “no conclusion”.

For the compound `CC(=O)Nc1ccc(C(O)C(O)c2ccccc2)cc1` (configuration not stated), under setting [9], the mutagenic call is given as “no conclusion”.

On to `CC(=O)C1COC(O)C1C` (configuration not stated), for which the mutagenic call under setting [12] is “active; positive”.

Turning to `CC(C)N(C(=O)SC/C(Cl)=C/Cl)C(C)C`, the mutagenic call was “active; positive” (Species/Cell Type: Nonhuman, Assay Type: Sister-chromatid exchange (SCE) in vitro, Assay Code: SC2+D*, Activation: With metabolic activation, Dose Response: With dose response, Evaluation Type: Evaluation B (Post-1980)) and “active; positive” under setting [10].

`CN(C)/N=N/c1nc[nH]c1C(N)=O`: the mutagenic call is “active; positive” under setting [1]; “active; positive” under setting [7]; “active; positive” (Species/Cell Type: Human lymphocytes, Assay Type: Sister-chromatid exchange (SCE) in vivo, Assay Code: SCY+, Evaluation Type: Evaluation B (Post-1980)); “active; positive” (Species/Cell Type: Nonhuman, Assay Type: Sister-chromatid exchange (SCE) in vitro, Assay Code: SC2+, Evaluation Type: Evaluation B (Post-1980)). The call under setting [5] was “active; positive”.

Take `O=NN(CCCO)CCCCO`: under setting [9], the mutagenic call was “no conclusion”.

Turning to `Cc1ccc2nc3c(ccc4ccccc43)c(C)c2c1`, the mutagenic call was “no conclusion” (Species/Cell Type: Escherichia coli polA (W3110 vs P3478), Assay Type: Rec-assay, DNA effects (bacterial DNA repair), Assay Code: RE2T, Evaluation Type: Evaluation A (Pre-1980)); “no conclusion” (Species/Cell Type: Escherichia coli polA (W3119 vs P3478), Assay Type: Rec-assay, DNA effects (bacterial DNA repair), Assay Code: RE1T, Evaluation Type: Evaluation A (Pre-1980)); “active; positive” under setting [3]; “inactive; negative” (Species/Cell Type: Mouse (BALB/c-3T3) cells, Assay Type: Cell transformation, Assay Code: CTB-, Evaluation Type: Evaluation A (Pre-1980)); “inactive; negative” under setting [11]; “active; positive” under setting [10]. Besides, the mutagenic call is “inactive; negative” (Species/Cell Type: Salmonella typhimurium, Assay Type: Forward and reverse gene mutation, host-mediated assay, Assay Code: HMA-, Evaluation Type: Evaluation A (Pre-1980)); “active; positive” (Species/Cell Type: Syrian hamster embryo (SHE) cells, Assay Type: Cell transformation, clonal assay, Assay Code: CTC+, Evaluation Type: Evaluation A (Pre-1980)). The call (Species/Cell Type: Nonhuman, Assay Code: CCG+L, Evaluation Type: Evaluation A (Pre-1980)) was “active; positive”.

For `Cc1cc2ccccc2oc1=O`, the mutagenic call (Species/Cell Type: Allium cepa, Assay Type: Chromosome aberrations, Assay Code: ALC+D, Dose Response: With dose response, Evaluation Type: Evaluation A (Pre-1980)) is “active; positive”.

Consider `Cl/C=C(\Cl)C(Cl)Cl`, for which the mutagenic call under setting [12] was “active; positive”.

`CCC1(CC)C(=O)NC(=O)NC1=O`: the mutagenic call is “active; positive” (Species/Cell Type: Nonhuman bone marrow, Assay Type: Chromosome aberrations, in vivo, Assay Code: CY#+, Evaluation Type: Evaluation A (Pre-1980)) and “inactive; negative” (Species/Cell Type: Nonhuman, Assay Type: Sister-chromatid exchange (SCE) in vitro, Assay Code: SC2-, Evaluation Type: Evaluation A (Pre-1980)).

In the case of `O=c1[nH]c(=O)n([C@H]2C[C@H](O)[C@@H](CO)O2)cc1/C=C/I`, the mutagenic call (Species/Cell Type: Human, Assay Type: Sister-chromatid exchange (SCE) in vitro, Assay Code: SC1+D, Dose Response: With dose response, Evaluation Type: Evaluation B (Post-1980)) was “active; positive”.

These data come from PubChem BioAssay AID1259408 (Genetic Toxicology Data Bank (GENE-TOX), 2018).
